Entries after “also recorded” stand apart in the source; their conditions may differ. Where a name gives a salt, the structure may show the parent alone.
What was measured:
primary T cells = test: Dose response of primary T cell viability and yield; type: cell-based, human; conditions: 24 hours at 30° C. or 37° C.
Experimental: (§1) T cells were purified, activated and electroporated with mRNA encoding TCRα-targeting megaTAL-Trex2 fusion as described in Example 1. Electroporated cells were cultured for 24 hours at either 30° C. or 37° C. with Tilorone, Aminacrine, Homidium Bromide (Ethidium Bromide) and Harmine. Cells were then washed to remove residual compound and cultured for an additional three days. After the three days of culture, the cells were stained with CD4, CD8 and CD3 and analyzed by flow cytometery as described in Example 1.

[1] = system: BCL11A erythroid enhancer locus in primary human CD34+ cells; test: HDR of AAV BFP template at the BCL11A erythroid enhancer with BCL11A megaTAL in CD34+ cells; type: cell-based; conditions: aminacrine 0.3 μM, 1.0 μM, 3.0 μM for 24 hours
Experimental: Adeno-associated virus (AAV) plasmids containing a promoter, a GFP or BFP reporter transgene and a polyadenylation signal were designed, constructed, and verified. The transgene was flanked by either 1.3 kb and 1.0 kb homology arms to the BCL11A erythroid enhancer locus at DHS58 (Bauer et al., Science. 342(6155): 253-7 (2013)). rAAV is generated by transient transfection of HEK293T cells, as described in Example 3.
(§2) Primary human peripheral blood-derived CD34+ cells were cultured in cytokine-supplemented media for 72 hours. Cells were washed and electroporated with either an mRNA encoding a megaTAL specific for the human BCL11A erythroid enhancer region or a megaTAL targeting the human CCR5 locus. Cells were then incubated with AAV vector with or without aminacrine at concentrations of 0 μM, 0.3 μM, 1.0 μM, and 3.0 μM for 24 hours, washed and cultured in cytokine-supplemented media. HDR was analyzed at regular timepoints by flow cytometry to determine BFP fluorescence.

[2] = system: BCL11A erythroid enhancer region in primary human CD34+ cells; test: HDR in bulk CD34+ cell population with BCL11A megaTAL and AAV donor template; type: cell-based; conditions: aminacrine 1.0 μM for 24 hours
Experimental: as §2, with “48” for “72”, “with” for “with either”, “region.” for “region or a megaTAL targeting the human CCR5 locus.”, “a concentration” for “concentrations”, “of” for “of 0 μM, 0.3 μM,”, “1.0” for “1.0 μM, and 3.0”

[3] = system: TCRα gene in primary human T cells; test: Small molecule screen: megaTAL-mediated disruption of the TCRα gene detected by loss of CD3 cell surface staining; type: cell-based; conditions: 10 μM, 24 hours at 37° C., then three more days; proportion of CD4/CD8+ cells negative for CD3
Experimental: A small molecule screen (FIG. 1) was performed to identify candidate soluble factors which could modulate the efficiency of genomic editing at the TCR locus in primary human T cells.

[4] = system: CCR5 locus in primary human CD34+ cells; test: Non-target control: CCR5-specific megaTAL combined with BCL11A-targeting AAV template in CD34+ cells; type: cell-based; conditions: aminacrine 0.3-3.0 μM for 24 hours
Experimental: as §2

[5] = system: TCRα gene in primary T cells; test: Dose response of megaTAL-Trex2 TCRα gene disruption (NHEJ editing efficiency) in primary T cells; type: cell-based, human; conditions: 24 hours at 30° C. or 37° C.
Experimental: as §1

[6] = system: human peripheral blood CD34+ cells; test: Methylcellulose colony forming assay of edited CD34+ cells; type: cell-based
Experimental: (§3) A potential caveat with using small molecules to enhance gene repair is the impact on hematopoietic stem and progenitor cell survival. The methylceulluose colony forming assay was used to determine the impact of aminacrine treatment on hematopoietic stem and progenitor cell survival in vitro. Human peripheral blood CD34+ cells were cultured in cytokine supplemented media, electroporated with mRNA encoding BCL11A-specific megaTAL and transduced with BCL11A-HDR AAV vector, as described in Example 4.
(§4) Cells were cultured in the presence or absence of aminacrine during the first 24 hours post-electroporation. Following this post-electroporation recovery step, cells were counted and plated into methylcellulose media.
After 14 days in methylcellulose culture, the erythroid burst-forming units (BFU) and hematopoietic colony forming units (CFU) were scored based on frequency and morphology. […] FIG. 6.

[7] = system: BCL11A locus in primary human hematopoietic stem and progenitor cells; test: HDR in methylcellulose colonies derived from CD34+ cells, by flow cytometry; type: cell-based; conditions: samples treated with both megaTAL and rAAV vector
Experimental: as §3, §4
To determine whether treatment with aminacrine could yield elevated HDR rates in methylcellulose colonies derived from primary human hematopoietic stem and progenitor cells, colonies were harvested and analyzed by flow cytometry. […] FIG. 7.

primary human T cells = test: Small molecule screen: cell yield (flow cytometry events in the live gate); conditions: 10 μM, 24 hours at 37° C., then three more days; number of flow cytometry events in the live gate
Experimental: Briefly, purified CD3+ primary human T cells were activated with CD3/CD28 magnetic beads and cultured for 48 hours in IL-2 supplemented complete RPMI media prior to bead removal. After bead removal, T cells were washed and electroporated with in vitro transcribed mRNA encoding a T cell receptor alpha (TCRα) targeting megaTAL-Trex2 fusion mRNA. Cells were then distributed into 384-well format and contacted with a library of ˜2000 known drugs, natural products, and other bioactive components (Microsource Discovery System's Spectrum Collection), with each drug at a final concentration of 10 μM. Cells were cultured with the compounds for 24 hours at 37° C. and then washed and cultured for an additional three days. Cells were then stained for CD3, CD4, and CD8 surface markers, and subjected to high-throughput volumetric flow cytometric analysis.
The number of flow cytometry events in the “live” gate of the FSC/SSC profile was used as a measure of cell yield.

[8] = system: TCRα locus in primary human T cells; test: Aminacrine HDR assay: megaTAL-induced HDR of AAV MND-GFP transgene at the TCRα locus; type: cell-based; conditions: for % GFP positive cells: megaTAL +
Source text: Adeno-associated virus (AAV) plasmids containing transgene cassettes comprising a promoter, a transgene encoding a fluorescent protein, and a polyadenylation signal were designed and constructed. The integrity of AAV ITR elements was confirmed with XmaI digest. The transgene expression cassette was placed between two homology regions within exon 1 of the TCRα gene to enable targeting by homologous recombination (AAV targeting vector) using a TCRα-targeting megaTAL. The 5′ and 3′ homology regions were ˜1500 bp and ˜1000 bp in length, respectively, and neither homology region contained the complete megaTAL target site. The transgene expression cassette contained a myeloproliferative sarcoma virus enhancer, negative control region deleted, d1587rev primer-binding site substituted (MND) promoter operably linked to a polynucleotide encoding a fluorescent polypeptide, e.g., green fluorescent protein (GFP). The expression cassettes also contain the SV40 late polyadenylation signal.
Recombinant AAV-6 (rAAV) was prepared by transiently co-transfecting HEK 293T cells with one or more plasmids providing the replication, capsid, and adenoviral helper elements necessary. rAAV was purified from the co-transfected HEK 293T cell culture using ultracentrifugation in an iodixanol-based gradient.
MegaTAL-induced homology directed repair (HDR) was evaluated in primary human T cells activated with CD3 and CD28 and cultured in complete media supplemented with IL-2. […] Controls included T cells containing megaTAL or rAAV targeting vector alone. Cells were cultured overnight at 30° C. in the presence or absence of two different doses of aminacrine. Five days post electroporation the frequency of GFP+ T cells was measured by flow cytometry.

Row | SMILES | % CD3 negative [3] | efficiency of TCRα disruption (proportion of CD3-negative cells), in words [5] | Cell Yield (primary human T cells) | other results
1 | Nc1c2ccccc2nc2ccccc12 [Aminacrine, 9-aminoacridine] | 82.8% | Enhance MegaTAL-Mediated Gene Disruption; also recorded: substantially enhanced gene disruption | 13621 | T cell viability and yield, in words (primary T cells): minimal impact on cell viability; HDR frequency at the BCL11A locus (% BFP+ cells), in words [1]: concentration-dependent increase in HDR frequency; HDR frequency at the BCL11A locus (% BFP+ cells) in bulk CD34+ cells, in words [2]: increased HDR frequency; HDR frequency at the BCL11A locus (% BFP+ cells) in bulk CD34+ cells, in words ([2]; listed as aminacrine): increases HDR; Template capture via a non-homology driven NHEJ pathway, in words [4]: not enhanced; proportion of BFP+ cells with CCR5-specific megaTAL and BCL11A-targeting AAV template, in words [4]: did not significantly increase; proportion of BFP+ cells with CCR5-specific megaTAL and BCL11A-targeting AAV template, in words ([4]; listed as aminacrine): not at the non-target CCR5 locus; lineage output of BFU and CFU colonies, in words ([6]; 14 days in methylcellulose culture, aminacrine during first 24 hours post-electroporation): comparable lineage output and showed no overt lineage skewing; hematopoietic stem and progenitor cell survival, in words ([6]; methylcellulose colony forming assay): does not Adversely Affect; proportion of cells undergoing HDR in methylcellulose colonies, in words [7]: increased the proportion of cells undergoing HDR; % GFP+ (frequency of HDR events) ([8]; 10 μM aminacrine following megaTAL transfection, 18% without aminacrine): 36%; % GFP positive cells ([8]; Donor 783, Aminacrine 2 μM, AAV-GFP +): 25%; % GFP positive cells ([8]; Donor 783, Aminacrine 2 μM, AAV-GFP −): 0; % GFP positive cells ([8]; Donor 783, Aminacrine 10 μM, AAV-GFP +): 36%; % GFP positive cells ([8]; Donor 783, Aminacrine 10 μM, AAV-GFP −): 0; % GFP positive cells ([8]; Donor 855, Aminacrine 2 μM, AAV-GFP +): 41%; % GFP positive cells ([8]; Donor 855, Aminacrine 2 μM, AAV-GFP −): 0; % GFP positive cells ([8]; Donor 855, Aminacrine 10 μM, AAV-GFP +): 38%; % GFP positive cells ([8]; Donor 855, Aminacrine 10 μM, AAV-GFP −): 0; frequency of HDR events (% GFP+ cells), in words ([8]; T cells, aminacrine 2 μM and 10 μM overnight at 30° C.): concentration-dependent increase
2 | C[C@@H]1C[C@@H]([C@H](O)CC2CC(=O)NC(=O)C2)C(=O)[C@@H](C)C1 [Cyclohexamide] | 68.7% |  | 4166 | 
3 | COc1cccc2c1C(=O)c1c(O)c3c(c(O)c1C2=O)C[C@@](O)(C(C)=O)C[C@@H]3O[C@H]1C[C@H](N)[C@H](O)[C@H](C)O1 [Daunorubicin] | 73.3% |  | 35 | 
4 | CCOc1ccc2nc3cc(N)ccc3c(N)c2c1 [Ethacridine Lactate] | 70.4% |  | 14179 | 
5 | COc1ccc2c(c1)[nH]c1c(C)nccc12 [Harmine] | 75.1% | Enhance MegaTAL-Mediated Gene Disruption | 9581 | 
6 | CC[n+]1c(-c2ccccc2)c2cc(N)ccc2c2ccc(N)cc21 [Homidium Bromide] | 80.3% | Enhance MegaTAL-Mediated Gene Disruption | 1023 | 
7 | CCN(CC)CCNc1ccc(CO)c2sc3ccccc3c(=O)c12 [Hycanthone] | 74.1% |  | 10012 | 
8 | OC[C@H]1O[C@@H](n2cnc3c(NCc4ccco4)ncnc32)[C@H](O)[C@@H]1O [Kinetin Riboside] | 70.8% |  | 1668 | 
9 | C[n+]1cc2c3c(ccc2c2ccc4cc5c(cc4c21)OCO5)OCO3 [Sanguinarine Sulfate] | 71.1% |  | 2346 | 
10 | CCN(CC)CCOc1ccc2c(c1)C(=O)c1cc(OCCN(CC)CC)ccc1-2 [Tilorone] | 86.8% | Enhance MegaTAL-Mediated Gene Disruption | 310 | 

Source: patent publication US20190169597A1, “GENOME EDITING ENHANCERS” (bluebird bio, Inc., priority 2016, published 2019)
